Experimental data: patent publication US20080280890A1, “HYDROXYLAMINE COMPOUNDS AND METHODS OF THEIR USE” (priority 2007, published 2008)
pIC50: −log10 of the molar value. Values joined by “and” are separate entries in the source; they are usually repeats but may differ in a detail not shown here. Identical values can stand only once. Like-named read-outs stand apart in the source and are kept apart here.

Columns and labels:
[1] = test system: lipid peroxidation; assay: Lipid peroxidation inhibition (method of Ohkawa); assay type: biochemical; settings: for Lipid Peroxidation % Inhibition: 10 uM
[2] = test system: Angiogenesis in CAM model; assay: Neovascularization on the CAM (chick chorioallantoic membrane model of angiogenesis); assay type: in vivo, chicken; settings: 30 ug; for Percent inhibition of angiogenesis in CAM model at 30 ug: unit assumed
Outline: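 Chick CAM of 10-day embryos given filter disks pretreated with cortisone acetate and saturated with bFGF (1 μg/ml) or other pro-angiogenic factors. After 24-48 hr, 10-25 ul test agent was injected intravenously or applied topically. After 3 days at 37° C, vessel branch points under each disk were counted at 50× (8 CAMs/group) and converted to % inhibition relative to positive and negative controls.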

[3] = test system: TNF-alpha; assay: LPS induced TNF-alpha inhibition (whole blood / THP-1 cells, ELISA); assay type: cell-based, human; settings: for Mean Percent Inhibition of TNF-alpha using 5 ng/mL LPS: compound 10 uM; for pIC50: read-out: TNFalpha IC50
Experimental: Following incubation with LPS, PBS was added (800 uL) and samples were spun for 10 minutes at 1500 g. […] TNFα protein concentrations were measured using R&D Systems high sensitivity ELISA kit.
The lipid peroxidation assay method of Ohkawa, H.; Ohishi, N.; Yaki, K. Anal. Biochem. 1979, 95, 351 was used to evaluate TNF α. […] Cells were induced with 25 ng/mL LPS for another 3 hrs. Cells were collected and spun at 1500 g for 10 minutes. Supernatant was collected and analyzed for TNFα.
OT-551 was used in both native form and in the form of nanoparticles. […] Other nitrogenous heterocyclic species of the invention are expected to show similar improvement in efficacy when disposed in nanoparticulate form.

[4] = test system: Human neuroblastoma SKN-SH cells, resistant to doxorubicin; assay: Chemoresistance: cancer cell viability (MTT) in presence or absence of doxorubicin; assay type: cell-based; settings: for Mean OD (×10^−3), cancer cell viability: compound 50 ug/mL, MTT
Outline: (§1)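 Doxorubicin-resistant SKN-SH neuroblastoma cells, selected by stepwise exposure to 10^−9–10^−6 M doxorubicin over 3 months, in DMEM/10% FBS at 37 °C. Treated with doxorubicin alone or with hydroxylamine for 72 h (96 h in one variant). MTT read at 570 nm, survival relative to untreated cells.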

[5] = test system: Human neuroblastoma SKN-SH cells; assay: as above; assay type: cell-based; settings: compound alone; P<0.001
Outline: as §1

[6] = test system: bFGF (FGF2) stimulated angiogenesis in CAM model; assay: Angiogenesis in the CAM model using bFGF stimulus; assay type: in vivo, chicken; settings: FGF2 (1 ug) + 30 ug injected
Experimental: The number of vessel branch points contained in a circular region equal to the area of a filter disk was counted for each section. Percent inhibition data are expressed as the quotient of the experimental value minus the negative control value divided by the difference between the positive control value and the negative control value. One image was counted in each CAM preparation, and findings from eight CAM preparations were analyzed for each treatment condition. In addition, each experiment was performed three times. The resulting angiogenesis index is the mean ± SEM (Standard Error of Measurement) of new branch points in each set of treatment. Statistical analysis of blood vessel branching patterns are performed by 1-way analysis of variance (ANOVA) comparing experimental with corresponding control groups. Statistical significance differences are assessed at P value of <0.05.
Assessment of Angiogenesis in the CAM Model Using bFGF Stimulus.
The CAM model protocol was modified to include stimulus with bFGF. The effect of injected OT 551 was assayed.

[7] = Ocular permeability and retinal levels after topical administration; assay type: in vivo

Compound	% Lipid Peroxidation inhibition (at 1 uM) [1]	Lipid Peroxidation % Inhibition [1]	CAM data % Inhibition [2]	Percent inhibition of angiogenesis in CAM model at 30 ug [2]	Mean Percent Inhibition of TNF-alpha using 5 ng/mL LPS [3]	pIC50 [3]	reversal of drug resistance ([4]; combined with doxorubicin, osteosarcoma, breast cancer, and neuroblastoma)	Mean OD (×10^−3), cancer cell viability ([4]; Dox. 10^−6 M present (+))	Mean OD (×10^−3), cancer cell viability ([4]; Dox. absent (−))	killing of doxorubicin-resistant cells ([4]; compound alone, P<0.001)	killing of doxorubicin-sensitive cells [5]	pIC50 ([3]; Homo sapiens, THP-1)	% Inhibition ± SEM [6]	Branch pts ± SEM [6]	levels in the retina ([7]; after topical administration)	permeability through the cornea ([7]; in vivo)
1-hydroxyl-4-(4-(2,2,6,6-tetramethylpiperidin-1-hydroxyl-4-yloxy)-1,2,5-thiadiazol-3-yloxy)-2,2,6,6-tetramethylpiperidine [Compound 14]	88.6%	95.2%	95.2%	75.1%	63 ± 1%	4.94	–	–	–	–	–	–	–	–	–	–
CC1(C)CC(Oc2nsnc2N2CCOCC2)CC(C)(C)N1O.Cl [Compound 4, 4-(4-(2,2,6,6-tetramethylpiperidin-1-hydroxyl-4-yloxy)-1,2,5-thiazol-3-yl)morpholine]	87.0%	91.4%	–	92.8%	–	–	strong ability to reverse drug resistance	88.00 ×10^−3	468.50 ×10^−3	enhanced the killing	enhanced the killing	–	–	–	–	–
Cc1nsnc1OCC1=CC(C)(C)N(O)C1(C)C [Compound 47, 3-((1-hydroxy-2,5-dihydro-2,2,5,5-tetramethyl-1H-pyrrol-3-yl)methoxy)-4-methyl-1,2,5-thiadiazole]	60.3%	–	–	–	–	–	–	261.00 ×10^−3	1168.33 ×10^−3	–	–	≤ 4.00	–	–	–	–
CC1(C)CC(OC(=O)C2CC2)CC(C)(C)N1O.Cl [OT-551 HCl]	–	–	75.2 ± 9.7% and 79.6 ± 7.9% and 74 ± 4%	–	68 ± 6%	–	–	–	–	–	–	–	74 ± 4%	87 ± 3	good levels	good permeability
